Several values for one entry are separate records, joined by “and”; a condition that tells them apart may be missing. Equal entries are not always repeated. Inconclusive results and toxic doses are left out. How the source made its calls: active means survival T/C of 150% or more; inactive means T/C below 125% in these data.
Tested on: CD2F1 mice, L1210 leukemia ip, survival T/C
Test: NCI In Vivo Anticancer Drug Screen. Data for tumor model L1210 Leukemia (intraperitoneal) in CD2F1 (CDF1) mice
Conditions: higher = longer survival
In short: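 Compound-dosed mice with transplantable tumor versus matched vehicle controls; endpoint ratio T/C reported.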

[1] = endpoint: mean survival time, dose: 25.0 mg/kg/injection, schedule: Q01DX009 (ip), vehicle: saline with Tween-80
[2] = endpoint: mean survival time, dose: 100.0 mg/kg/injection, schedule: Q01DX001 (ip), vehicle: saline with Tween-80
[3] = endpoint: mean survival time, dose: 50.0 mg/kg/injection, schedule: Q01DX001 (ip), vehicle: saline
[4] = endpoint: mean survival time, dose: 100.0 mg/kg/injection, schedule: Q01DX001 (ip), vehicle: saline
[5] = endpoint: mean survival time, dose: 200.0 mg/kg/injection, schedule: Q01DX001 (ip), vehicle: saline
[6] = endpoint: mean survival time, dose: 400.0 mg/kg/injection, schedule: Q01DX001 (ip), vehicle: saline
[7] = endpoint: mean survival time, dose: 100.0 mg/kg/injection, schedule: Q01DX001 (ip), vehicle: Klucel (hydroxypropylcellulose) (HPC)
[8] = endpoint: mean survival time, dose: 200.0 mg/kg/injection, schedule: Q01DX001 (ip), vehicle: Klucel (hydroxypropylcellulose) (HPC)
[9] = endpoint: mean survival time, dose: 25.0 mg/kg/injection, schedule: Q01DX009 (ip), vehicle: other
[10] = endpoint: mean survival time, dose: 50.0 mg/kg/injection, schedule: Q01DX009 (ip), vehicle: other
[11] = endpoint: mean survival time, dose: 100.0 mg/kg/injection, schedule: Q01DX009 (ip), vehicle: saline with Tween-80
[12] = endpoint: mean survival time, dose: 50.0 mg/kg/injection, schedule: Q01DX009 (ip), vehicle: saline with Tween-80
[13] = endpoint: mean survival time, dose: 100.0 mg/kg/injection, schedule: Q04DX003 (ip), vehicle: saline with Tween-80
[14] = endpoint: mean survival time, dose: 200.0 mg/kg/injection, schedule: Q04DX003 (ip), vehicle: saline with Tween-80
[15] = endpoint: mean survival time, dose: 200.0 mg/kg/injection, schedule: Q01DX009 (ip), vehicle: saline with Tween-80

Measured: T/C

OCCN1CCN(CCCN2c3ccccc3Sc3ccc(C(F)(F)F)cc32)CC1
inactive: endpoint: mean survival time, dose: 1.49 mg/kg/injection, schedule: Q01DX009 (ip), vehicle: saline 110 % of control | endpoint: mean survival time, dose: 2.27 mg/kg/injection, schedule: Q01DX009 (ip), vehicle: saline 113 % of control | endpoint: mean survival time, dose: 3.4 mg/kg/injection, schedule: Q01DX009 (ip), vehicle: saline 121 % of control | endpoint: mean survival time, dose: 5.0 mg/kg/injection, schedule: Q04DX003 (ip), vehicle: saline 116 % of control | endpoint: mean survival time, dose: 6.6 mg/kg/injection, schedule: Q04DX003 (ip), vehicle: saline sonified 100 % of control | endpoint: mean survival time, dose: 6.6 mg/kg/injection, schedule: Q04DX003 (ip), vehicle: saline 108 % of control | endpoint: mean survival time, dose: 10.0 mg/kg/injection, schedule: Q04DX003 (ip), vehicle: saline sonified 101 % of control | endpoint: mean survival time, dose: 10.0 mg/kg/injection, schedule: Q04DX003 (ip), vehicle: saline 116 % of control | endpoint: mean survival time, dose: 15.0 mg/kg/injection, schedule: Q04DX003 (ip), vehicle: saline 114 % of control and 94 % of control | endpoint: mean survival time, dose: 20.0 mg/kg/injection, schedule: Q04DX003 (ip), vehicle: saline 106 % of control | endpoint: mean survival time, dose: 30.0 mg/kg/injection, schedule: Q04DX003 (ip), vehicle: saline 75 % of control

C/C(=N/N(C)C)c1ccc2ccccc2c1
inactive: endpoint: mean survival time, dose: 12.5 mg/kg/injection, schedule: Q01DX009 (ip), vehicle: saline with Tween-80 97 % of control | endpoint: mean survival time, dose: 25.0 mg/kg/injection, schedule: Q01DX001 (ip), vehicle: saline with Tween-80 103 % of control | [1] 95 % of control | endpoint: mean survival time, dose: 50.0 mg/kg/injection, schedule: Q01DX001 (ip), vehicle: saline with Tween-80 97 % of control | [2] 103 % of control

COC1(O)C(=O)c2ccccc2OC1(OC)c1ccc(Cl)cc1 (stereo unspecified)
inactive: [3] 98 % of control | [4] 102 % of control | [5] 98 % of control | [6] 98 % of control

N/C(=N/N=C/c1ccco1)N[N+](=O)[O-]
inactive: endpoint: mean survival time, dose: 50.0 mg/kg/injection, schedule: Q01DX001 (ip), vehicle: Klucel (hydroxypropylcellulose) (HPC) 97 % of control | [7] 94 % of control | [8] 97 % of control

COc1ccc(C(=O)NNC(=O)c2ccc(OC)cc2)cc1
inactive: [7] 108 % of control | [8] 104 % of control | endpoint: mean survival time, dose: 400.0 mg/kg/injection, schedule: Q01DX001 (ip), vehicle: Klucel (hydroxypropylcellulose) (HPC) 100 % of control

O=C(NCCCCCCNC(=O)N1CC1)N1CC1
inactive: endpoint: mean survival time, dose: 0.4 mg/kg/injection, schedule: Q01DX001 (ip), vehicle: saline 109 % of control | endpoint: mean survival time, dose: 0.8 mg/kg/injection, schedule: Q01DX001 (ip), vehicle: saline 118 % of control | endpoint: mean survival time, dose: 1.7 mg/kg/injection, schedule: Q01DX001 (ip), vehicle: saline 114 % of control

COc1cc(C2c3cc4c(cc3C(OC3CCCCO3)C3COC(=O)C23)OCO4)cc(OC)c1OC (stereo unspecified)
inactive: endpoint: median survival time, dose: 1.56 mg/kg/injection, schedule: Q01DX009 (ip), vehicle: Klucel (hydroxypropylcellulose) (HPC) 109 % of control | endpoint: median survival time, dose: 3.12 mg/kg/injection, schedule: Q01DX009 (ip), vehicle: Klucel (hydroxypropylcellulose) (HPC) 120 % of control | endpoint: median survival time, dose: 3.13 mg/kg/injection, schedule: Q01DX009 (ip), vehicle: Klucel (hydroxypropylcellulose) (HPC) 114 % of control | endpoint: median survival time, dose: 6.25 mg/kg/injection, schedule: Q01DX009 (ip), vehicle: Klucel (hydroxypropylcellulose) (HPC) 120 % of control | endpoint: median survival time, dose: 12.5 mg/kg/injection, schedule: Q01DX009 (ip), vehicle: Klucel (hydroxypropylcellulose) (HPC) 101 % of control

CCCCn1c(Cc2ccccc2)nc2c1C(=O)c1ccccc1C2=O
inactive: endpoint: mean survival time, dose: 100.0 mg/kg/injection, schedule: Q04DX003 (ip), vehicle: saline 103 % of control | endpoint: mean survival time, dose: 200.0 mg/kg/injection, schedule: Q04DX003 (ip), vehicle: saline 101 % of control | endpoint: mean survival time, dose: 400.0 mg/kg/injection, schedule: Q04DX003 (ip), vehicle: saline 98 % of control

C#CC(=O)OCC#CCOC(=O)C#C
inactive: endpoint: mean survival time, dose: 0.75 mg/kg/injection, schedule: Q01DX009 (ip), vehicle: saline with Tween-80 98 % of control | endpoint: mean survival time, dose: 1.5 mg/kg/injection, schedule: Q01DX009 (ip), vehicle: saline with Tween-80 100 % of control | endpoint: mean survival time, dose: 3.0 mg/kg/injection, schedule: Q01DX009 (ip), vehicle: saline with Tween-80 98 % of control | endpoint: mean survival time, dose: 6.0 mg/kg/injection, schedule: Q01DX009 (ip), vehicle: saline with Tween-80 98 % of control | endpoint: mean survival time, dose: 12.0 mg/kg/injection, schedule: Q01DX009 (ip), vehicle: saline with Tween-80 90 % of control

Cc1cn(C2CC(O)C(CO)O2)c(=O)nc1N1CCCC1 (stereo unspecified)
inactive: endpoint: median survival time, dose: 12.5 mg/kg/injection, schedule: Q01DX005 (ip), vehicle: water 103 % of control | endpoint: median survival time, dose: 25.0 mg/kg/injection, schedule: Q01DX005 (ip), vehicle: water 108 % of control | endpoint: median survival time, dose: 50.0 mg/kg/injection, schedule: Q01DX005 (ip), vehicle: water 102 % of control | endpoint: median survival time, dose: 100.0 mg/kg/injection, schedule: Q01DX005 (ip), vehicle: water 101 % of control | endpoint: median survival time, dose: 200.0 mg/kg/injection, schedule: Q01DX005 (ip), vehicle: water 102 % of control

CC(=O)Nc1ccsc1
inactive: [4] 96 % of control | [5] 95 % of control | [6] 95 % of control

CCO/C=C1\SC(=S)N(Cc2ccccc2)C1=O
inactive: [9] 105 % of control | [10] 115 % of control | [11] 89 % of control

CCN=NNc1ccc(C)cc1
inactive: [12] 114 % of control | [11] 106 % of control | [13] 102 % of control | [14] 100 % of control

C=C(CC(=O)O)C(=O)O (tested in a mixture with another compound)
inactive: [12] 108 % of control | [11] 120 % of control | [13] 102 % of control | [15] 105 % of control | [14] 102 % of control

Cc1ccc(C#N)cn1
inactive: [11] 101 % of control | endpoint: mean survival time, dose: 100.0 mg/kg/injection, schedule: Q04DX003 (ip), vehicle: saline sonified 96 % of control | [15] 97 % of control | endpoint: mean survival time, dose: 200.0 mg/kg/injection, schedule: Q04DX003 (ip), vehicle: saline sonified 96 % of control | endpoint: mean survival time, dose: 400.0 mg/kg/injection, schedule: Q01DX009 (ip), vehicle: saline with Tween-80 90 % of control | endpoint: mean survival time, dose: 400.0 mg/kg/injection, schedule: Q04DX003 (ip), vehicle: saline sonified 89 % of control

CC(C)CCCC(C)C1CCC2C3CC=C4CC(OCCO)CCC4(C)C3CCC12C (stereo unspecified)
inactive: [9] 104 % of control | [10] 101 % of control | endpoint: mean survival time, dose: 100.0 mg/kg/injection, schedule: Q01DX009 (ip), vehicle: other 87 % of control

N#CCCCN1CCCCCC1
inactive: [13] 97 % of control

C(#[C][Ge]([C]#Cc1ccccc1)([C]#Cc1ccccc1)[C]#Cc1ccccc1)c1ccccc1
inactive: [1] 91 % of control | [12] 88 % of control | [11] 96 % of control | [15] 90 % of control

CCOC(=O)/C(N=Nc1ccc(O)cc1)=C(\C)O
inactive: endpoint: mean survival time, dose: 50.0 mg/kg/injection, schedule: Q01DX009 (ip), vehicle: Klucel (hydroxypropylcellulose) (HPC) 101 % of control | endpoint: mean survival time, dose: 100.0 mg/kg/injection, schedule: Q01DX009 (ip), vehicle: Klucel (hydroxypropylcellulose) (HPC) 93 % of control | endpoint: mean survival time, dose: 100.0 mg/kg/injection, schedule: Q04DX003 (ip), vehicle: acetone 95 % of control | endpoint: mean survival time, dose: 200.0 mg/kg/injection, schedule: Q01DX009 (ip), vehicle: Klucel (hydroxypropylcellulose) (HPC) 96 % of control | endpoint: mean survival time, dose: 200.0 mg/kg/injection, schedule: Q04DX003 (ip), vehicle: acetone 98 % of control

COC12[C@@H](COC(N)=O)C3=C(C(=O)C(C)=C(NCCSSCCNC4=C(C)C(=O)C5=C(C4=O)C(COC(N)=O)[C@]4(OC)C6[C@@H](CN54)N6C)C3=O)N1C[C@@H]1[C@H]2N1C (stereo partly specified)
inactive: endpoint: mean survival time, dose: 6.0 mg/kg/injection, schedule: Q01DX001 (ip), vehicle: distilled water + Tween-80 114 % of control

C=C(Cl)C(C)(C)C
inactive: endpoint: mean survival time, dose: 25.0 mg/kg/injection, schedule: Q01DX001 (ip), vehicle: saline 98 % of control | [3] 104 % of control | [4] 100 % of control

[NH-]NC(=S)[S-].[NH-]NC(=S)[S-].[Ni]
inactive: [13] 98 % of control | [14] 102 % of control | endpoint: mean survival time, dose: 400.0 mg/kg/injection, schedule: Q04DX003 (ip), vehicle: saline with Tween-80 107 % of control

CC(=O)CCS(=O)(=O)O
inactive: [2] 92 % of control | endpoint: mean survival time, dose: 200.0 mg/kg/injection, schedule: Q01DX001 (ip), vehicle: saline with Tween-80 95 % of control | endpoint: mean survival time, dose: 400.0 mg/kg/injection, schedule: Q01DX001 (ip), vehicle: saline with Tween-80 88 % of control

From PubChem BioAssay AID256 (DTP/NCI, 2004)
